Patent US20080058330A1, “Compounds and Combinations Thereof for Inhibiting Beta-Amyloid Production and Methods of Use Thereof” (Roskamp Research LLC, priority 2006, published 2008)

Tests used:
7W WT APP751 CHO cells [1] = assay: Screening of NF-kB activation inhibitors, Aβ1-40 and Aβ1-42 ELISA (Example 3); type: cell-based, Chinese hamster; conditions: 24 hours (FIG. 6)
Method: Each compound was dissolved in DMSO. 7W WT APP751 CHO cells overexpressing APP751 were plated into 96-well culture plates in 200 μL of culture medium. Each compound from the library was added to confluent cells to a final concentration of 500 nM, 1 μM, 5 μM, 10 μM and/or 30 μM. After 24 hours of treatment, culture medium was collected and dissolved 10-fold and 2-fold for measuring the level of Aβ1-40 and Aβ1-42, respectively. Aβ1-40 and Aβ1-42 were determined using commercially available ELISAs (Biosource, CA), following the recommendations of the manufacturer.

7W WT APP751 CHO cells [2] = assay: Screening of dihydropyridine compounds (Maybridge), Aβ1-40 and Aβ1-42 ELISA (Example 2); type: cell-based, Chinese hamster; conditions: 30 μM, 24 hours (FIG. 5A, 5B)
Method: Dihydropyridine compounds were obtained from Maybridge (England). Each compound was dissolved in DMSO. 7W WT APP751 CHO cells overexpressing APP751 were plated into 96-well culture plates in 200 μL of culture medium. Each compound from the library was added to confluent cells to a final concentration of 30 μM. After 24 hours of treatment, culture medium was collected and dissolved 10-fold and 2-fold for measuring the level of Aβ1-40 and Aβ1-42, respectively. Aβ1-40 and Aβ1-42 were determined using commercially available ELISAs (Biosource, CA), following the recommendations of the manufacturer.

Nc1ccc2ncnc(NCCc3ccc(Oc4ccccc4)cc3)c2c1 [6-amino-4-(4-phenoxyphenylethylamino)quinazoline]
significantly decreased: concentration of Aβ1-40 compared to controls (7W WT APP751 CHO cells [1]; 500 nM) | concentration of Aβ1-42 compared to controls (7W WT APP751 CHO cells [1]; 500 nM) | concentration of total β-amyloid compared to controls (7W WT APP751 CHO cells [1]; 500 nM) | concentration of Aβ1-40 compared to controls (7W WT APP751 CHO cells [1]; 5 μM) | concentration of Aβ1-42 compared to controls (7W WT APP751 CHO cells [1]; 5 μM) | concentration of total β-amyloid compared to controls (7W WT APP751 CHO cells [1]; 5 μM)

COC(=O)C1=C(C)NC(C)=C(C(=O)OCCCN2CCC(c3ccccc3)(c3ccccc3)CC2)[C@H]1c1cccc([N+](=O)[O-])c1.Cl [(S)-(+)-niguldipine]
significantly decreased: concentration of Aβ1-40 compared to controls (7W WT APP751 CHO cells [1]; 1 μM) | concentration of Aβ1-42 compared to controls (7W WT APP751 CHO cells [1]; 1 μM) | concentration of total β-amyloid compared to controls (7W WT APP751 CHO cells [1]; 1 μM) | concentration of Aβ1-40 compared to controls (7W WT APP751 CHO cells [1]; 5 μM) | concentration of Aβ1-42 compared to controls (7W WT APP751 CHO cells [1]; 5 μM) | concentration of total β-amyloid compared to controls (7W WT APP751 CHO cells [1]; 5 μM) | concentration of Aβ1-40 compared to controls (7W WT APP751 CHO cells [1]; 30 μM) | concentration of Aβ1-42 compared to controls (7W WT APP751 CHO cells [1]; 30 μM) | concentration of total β-amyloid compared to controls (7W WT APP751 CHO cells [1]; 30 μM)

CCOC(=O)C1=C(C)NC(C)=C(C(=O)OCC)C1c1ccc(Cl)cc1 [BTB 14328, diethyl 4-(4-chlorophenyl)-2,6-dimethyl-1,4-dihydropyridine-3,5-dicarboxylate]
significantly decreased: concentration of Aβ1-40 compared to controls (7W WT APP751 CHO cells [2]) | concentration of Aβ1-42 compared to controls (7W WT APP751 CHO cells [2]) | concentration of total β-amyloid (Aβ1-40+Aβ1-42) compared to controls (7W WT APP751 CHO cells [2])

CCOC(=O)C1=C(C)NC(C)=C(C(=O)OCC)C1c1ccc(-c2cc(C(F)(F)F)cc(C(F)(F)F)c2)o1 [CD 04170, diethyl 4-{5-[3,5-di(trifluoromethyl)phenyl]-2-furyl}-2,6-dimethyl-1,4-dihydro-pyridine-3,5-dicarboxylate]
significantly decreased: concentration of Aβ1-40 compared to controls (7W WT APP751 CHO cells [2]) | concentration of Aβ1-42 compared to controls (7W WT APP751 CHO cells [2]) | concentration of total β-amyloid (Aβ1-40+Aβ1-42) compared to controls (7W WT APP751 CHO cells [2])

O=C1C=C(c2ccccc2)CN(C2CCCCC2)C1=O [HTS 01512, 1-cyclohexyl-5-phenyl-1,6-dihydro-2,3-pyridinedione]
significantly decreased: concentration of Aβ1-40 compared to controls (7W WT APP751 CHO cells [2]) | concentration of Aβ1-42 compared to controls (7W WT APP751 CHO cells [2]) | concentration of total β-amyloid (Aβ1-40+Aβ1-42) compared to controls (7W WT APP751 CHO cells [2])

N#Cc1c(-c2cn(-c3ccccc3)nc2-c2ccccc2)cc(-c2ccccc2)[nH]c1=O [HTS 07578, 4-(1,3-diphenyl-1H-pyrazol-4-yl)-2-oxo-6-phenyl-1,2-dihydro-3-pyridinecarbonitrile]
significantly decreased: concentration of Aβ1-40 compared to controls (7W WT APP751 CHO cells [2]) | concentration of Aβ1-42 compared to controls (7W WT APP751 CHO cells [2]) | concentration of total β-amyloid (Aβ1-40+Aβ1-42) compared to controls (7W WT APP751 CHO cells [2])

N#Cc1c(-c2cccs2)cc(-c2ccccc2)[nH]c1=O [HTS 10306, 2-oxo-6-phenyl-4-(2-thienyl)-1,2-dihydro-3-pyridinecarbonitrile]
significantly decreased: concentration of Aβ1-40 compared to controls (7W WT APP751 CHO cells [2]) | concentration of Aβ1-42 compared to controls (7W WT APP751 CHO cells [2]) | concentration of total β-amyloid (Aβ1-40+Aβ1-42) compared to controls (7W WT APP751 CHO cells [2])

NC(=O)Nc1sc(-c2ccc(F)cc2)cc1C(N)=O [IKK-2 Inhibitor IV]
significantly decreased: concentration of Aβ1-40 compared to controls (7W WT APP751 CHO cells [1]; 500 nM) | concentration of Aβ1-42 compared to controls (7W WT APP751 CHO cells [1]; 500 nM) | concentration of total β-amyloid compared to controls (7W WT APP751 CHO cells [1]; 500 nM) | concentration of Aβ1-40 compared to controls (7W WT APP751 CHO cells [1]; 5 μM) | concentration of Aβ1-42 compared to controls (7W WT APP751 CHO cells [1]; 5 μM) | concentration of total β-amyloid compared to controls (7W WT APP751 CHO cells [1]; 5 μM)

CCOC(=O)C1=C(C)NC(C)=C(C(=O)OCC)C1c1ccc(Br)cc1 [JFD 01209, diethyl 4-(4-bromophenyl)-2,6-dimethyl-1,4-dihydropyridine-3,5-dicarboxylate]
significantly decreased: concentration of Aβ1-40 compared to controls (7W WT APP751 CHO cells [2]) | concentration of Aβ1-42 compared to controls (7W WT APP751 CHO cells [2]) | concentration of total β-amyloid (Aβ1-40+Aβ1-42) compared to controls (7W WT APP751 CHO cells [2])

CCOC(=O)C1=C(C)NC(C)=C(C(=O)OCC)C1c1ccc([N+](=O)[O-])cc1 [JFD 03266, diethyl 2,6-dimethyl-4-(4-nitrophenyl)-1,4-dihydropyridine-3,5-dicarboxylate]
significantly decreased: concentration of Aβ1-40 compared to controls (7W WT APP751 CHO cells [2]) | concentration of total β-amyloid (Aβ1-40+Aβ1-42) compared to controls (7W WT APP751 CHO cells [2])

CCOC(=O)C1=C(C)NC(C)=C(C(=O)OCC)C1c1ccc(C)cc1 [JFD 03282, diethyl 2,6-dimethyl-4-(4-methylphenyl)-1,4-dihydropyridine-3,5-dicarboxylate]
significantly decreased: concentration of Aβ1-40 compared to controls (7W WT APP751 CHO cells [2]) | concentration of Aβ1-42 compared to controls (7W WT APP751 CHO cells [2]) | concentration of total β-amyloid (Aβ1-40+Aβ1-42) compared to controls (7W WT APP751 CHO cells [2])

CC1=C(C#N)C(c2ccc(Cl)c(Cl)c2)C(C#N)=C(C)N1 [JFD 03292, 4-(3,4-dichlorophenyl)-2,6-dimethyl-1,4-dihydropyridine-3,5-dicarbonitrile]
significantly decreased: concentration of Aβ1-40 compared to controls (7W WT APP751 CHO cells [2]) | concentration of total β-amyloid (Aβ1-40+Aβ1-42) compared to controls (7W WT APP751 CHO cells [2])

COC(=O)C1=C(C)NC(C)=C(C(=O)OC)C1c1ccc(Cl)c(Cl)c1 [JFD 03293, dimethyl 4-(3,4-dichlorophenyl)-2,6-dimethyl-1,4-dihydropyridine-3,5-dicarboxylate]
significantly decreased: concentration of Aβ1-40 compared to controls (7W WT APP751 CHO cells [2]) | concentration of Aβ1-42 compared to controls (7W WT APP751 CHO cells [2]) | concentration of total β-amyloid (Aβ1-40+Aβ1-42) compared to controls (7W WT APP751 CHO cells [2])

CCOC(=O)C1=C(C)NC(C)=C(C(=O)OCC)C1c1ccc(Cl)c(Cl)c1 [JFD 03294, diethyl 4-(3,4-dichlorophenyl)-2,6-dimethyl-1,4-dihydropyridine-3,5-dicarboxylate]
significantly decreased: concentration of Aβ1-40 compared to controls (7W WT APP751 CHO cells [2]) | concentration of Aβ1-42 compared to controls (7W WT APP751 CHO cells [2]) | concentration of total β-amyloid (Aβ1-40+Aβ1-42) compared to controls (7W WT APP751 CHO cells [2])

CCOC(=O)C1=C(C)NC(C)=C(C(=O)OCC)C1c1ccccc1Cl [JFD 03305, diethyl 4-(2-chlorophenyl)-2,6-dimethyl-1,4-dihydropyridine-3,5-dicarboxylate]
significantly decreased: concentration of Aβ1-40 compared to controls (7W WT APP751 CHO cells [2]) | concentration of Aβ1-42 compared to controls (7W WT APP751 CHO cells [2]) | concentration of total β-amyloid (Aβ1-40+Aβ1-42) compared to controls (7W WT APP751 CHO cells [2])

COC(=O)C1=C(C)NC(C)=C(C(=O)OCCCN2CCC(c3ccccc3)(c3ccccc3)CC2)[C@@H]1c1cccc([N+](=O)[O-])c1.Cl [R-niguldipine]
significantly decreased: concentration of Aβ1-40 compared to controls (7W WT APP751 CHO cells [1]; 1 μM) | concentration of Aβ1-42 compared to controls (7W WT APP751 CHO cells [1]; 1 μM) | concentration of total β-amyloid compared to controls (7W WT APP751 CHO cells [1]; 1 μM) | concentration of Aβ1-40 compared to controls (7W WT APP751 CHO cells [1]; 5 μM) | concentration of Aβ1-42 compared to controls (7W WT APP751 CHO cells [1]; 5 μM) | concentration of total β-amyloid compared to controls (7W WT APP751 CHO cells [1]; 5 μM) | concentration of Aβ1-40 compared to controls (7W WT APP751 CHO cells [1]; 30 μM) | concentration of Aβ1-42 compared to controls (7W WT APP751 CHO cells [1]; 30 μM) | concentration of total β-amyloid compared to controls (7W WT APP751 CHO cells [1]; 30 μM)

C[C@@H]1CC[C@H]2[C@@H](C)C(=O)O[C@@H]3O[C@@]4(C)CC[C@@H]1[C@]32OO4 [artemisinin]
significantly decreased: concentration of Aβ1-40 compared to controls (7W WT APP751 CHO cells [1]; 1 μM) | concentration of Aβ1-42 compared to controls (7W WT APP751 CHO cells [1]; 1 μM) | concentration of total β-amyloid compared to controls (7W WT APP751 CHO cells [1]; 1 μM) | concentration of Aβ1-40 compared to controls (7W WT APP751 CHO cells [1]; 30 μM) | concentration of Aβ1-42 compared to controls (7W WT APP751 CHO cells [1]; 30 μM) | concentration of total β-amyloid compared to controls (7W WT APP751 CHO cells [1]; 30 μM)

CC1=C(O)C(=O)C=C2C1=CC=C1[C@@]2(C)CC[C@@]2(C)[C@@H]3C[C@](C)(C(=O)O)CC[C@]3(C)CC[C@]12C [celastrol]
significantly decreased: concentration of Aβ1-40 compared to controls (7W WT APP751 CHO cells [1]; 500 nM) | concentration of Aβ1-42 compared to controls (7W WT APP751 CHO cells [1]; 500 nM) | concentration of total β-amyloid compared to controls (7W WT APP751 CHO cells [1]; 500 nM) | concentration of Aβ1-40 compared to controls (7W WT APP751 CHO cells [1]; 5 μM) | concentration of Aβ1-42 compared to controls (7W WT APP751 CHO cells [1]; 5 μM) | concentration of total β-amyloid compared to controls (7W WT APP751 CHO cells [1]; 5 μM)

C=C1C(=O)O[C@@H]2C[C@@]3(C)CCCC(=C)[C@@H]3C[C@H]12 [isohelenin]
significantly decreased: concentration of Aβ1-40 compared to controls (7W WT APP751 CHO cells [1]; 5 μM) | concentration of Aβ1-42 compared to controls (7W WT APP751 CHO cells [1]; 5 μM) | concentration of total β-amyloid compared to controls (7W WT APP751 CHO cells [1]; 5 μM) | concentration of Aβ1-40 compared to controls (7W WT APP751 CHO cells [1]; 10 μM) | concentration of Aβ1-42 compared to controls (7W WT APP751 CHO cells [1]; 10 μM) | concentration of total β-amyloid compared to controls (7W WT APP751 CHO cells [1]; 10 μM)

C=C1C(=O)[C@@]23[C@H](O)C[C@@H]4C(C)(C)CC[C@H](O)[C@@]4(CO)[C@@H]2CC[C@@H]1[C@H]3O [kamebakaurin]
significantly decreased: concentration of Aβ1-40 compared to controls (7W WT APP751 CHO cells [1]; 10 μM) | concentration of Aβ1-42 compared to controls (7W WT APP751 CHO cells [1]; 10 μM) | concentration of total β-amyloid compared to controls (7W WT APP751 CHO cells [1]; 10 μM) | concentration of Aβ1-40 compared to controls (7W WT APP751 CHO cells [1]; 30 μM) | concentration of Aβ1-42 compared to controls (7W WT APP751 CHO cells [1]; 30 μM) | concentration of total β-amyloid compared to controls (7W WT APP751 CHO cells [1]; 30 μM)
